Assay results published in patent EP0606463B1, “NEUROMEDIN B RECEPTOR ANTAGONISTS” (The Administrators of The Tulane Educational Fund, priority 1992, dated 1994).
Where a SMILES comes first, the peptide text is derived from it. Bridges are numbered along the chain shown (N, C = ends). Where no end group is shown, it is not given here. [ ]: non-standard residue; d: D form. 2Nal = N[C@@H](Cc1ccc2ccccc2c1)C(=O)O; d2Nal = N[C@H](Cc1ccc2ccccc2c1)C(=O)O

Columns and labels:
[1] = tested on: endothelin-1-simulated increases in [^3H]IP; experiment: Endothelin-1-stimulated [3H]IP in C-6 glioblastoma cells; type: cell-based, rat
Protocol: (§1) Total phosphoinositides in C-6 cells and in NMB-R transfected cells were determined as described previously, with minor modifications [Benya, R. V. et al. Mol. Pharmacol. 42:1058 (1992); and Wang, L-H. et al. Biochem. J. 286:641 (1992)]. Cells were grown to confluence in 24-well plates and then loaded with 100 µCi/ml myo-[2-^3H]inositol in Dulbecco's modified essential medium with 2% fetal bovine serum at 37°C for 48 hrs. Cells were washed and incubated in phosphoinositide buffer (standard buffer additionally containing 10 mM LiCl, 20 mM HEPES, 2 mM CaCl2, 2% BSA, and 1.2 mM MgSO4) for 15 min and then for 60 min at 37°C with agonists at various concentrations or with 3 nM NMB (a half-maximal effective concentration) and possible antagonists at different concentrations. Reactions were halted using ice-cold 1% HCl in methanol, and the inositol phosphates (IP) were isolated as described previously [Bologna, M. et al. Cancer 63:1714 (1989); and Endo, T. et al. J. Endocrinol. 131:313 (1991)]. Briefly, after loading of the anion exchange column, free [^3H]glycerophosphorylinositol was removed by washing with 5 mM disodium tetraborate in 60 mM sodium formate. Total [^3H]inositol phosphates were then eluted using 100 mM formic acid in 1.0 M ammonium formate as described previously [Benya, R. V. et al. Mol. Pharmacol. 42:1058 (1992); and Wang, L-H. et al. Biochem. J. 286:641 (1992)].

[2] = target: T1, NMB receptors on rat olfactory bulb membranes (Rattus norvegicus, UniProt P24053); experiment: NMB membrane receptor assay (rat olfactory bulb membranes); type: binding
T1 construct: Membranes were prepared from rat olfactory bulb (NMB membrane receptor assay); from tissue; host or cells: rat olfactory bulb membranes
T1 sequence (P24053 1-390): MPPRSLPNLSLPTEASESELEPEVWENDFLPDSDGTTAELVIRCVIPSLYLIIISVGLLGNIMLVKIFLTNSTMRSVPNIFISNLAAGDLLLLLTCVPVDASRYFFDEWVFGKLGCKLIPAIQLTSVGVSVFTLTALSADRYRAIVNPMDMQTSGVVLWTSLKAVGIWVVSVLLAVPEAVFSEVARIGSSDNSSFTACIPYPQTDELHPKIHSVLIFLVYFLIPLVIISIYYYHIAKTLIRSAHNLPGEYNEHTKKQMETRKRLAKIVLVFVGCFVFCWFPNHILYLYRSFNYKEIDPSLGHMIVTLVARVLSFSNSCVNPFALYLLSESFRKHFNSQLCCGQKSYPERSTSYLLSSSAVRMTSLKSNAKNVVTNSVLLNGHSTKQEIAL

GRP Receptor = target: T2, GRP Receptor (Rattus norvegicus, UniProt P52500); experiment: Amylase release from rat pancreatic acini; type: cell-based; settings: for Rat Pancreatic Acini Amylase Release Alone (10µM): analog 10 µM alone, no-additive control 4 ± 1; for Rat Pancreatic Acini Amylase Release Plus Bn(0.3 nM): analog 10 µM plus Bn 0.3 nM, Bn without analog 15 ± 1
T2 construct: from tissue; host or cells: dispersed pancreatic acini
T2 sequence (P52500 whole entry): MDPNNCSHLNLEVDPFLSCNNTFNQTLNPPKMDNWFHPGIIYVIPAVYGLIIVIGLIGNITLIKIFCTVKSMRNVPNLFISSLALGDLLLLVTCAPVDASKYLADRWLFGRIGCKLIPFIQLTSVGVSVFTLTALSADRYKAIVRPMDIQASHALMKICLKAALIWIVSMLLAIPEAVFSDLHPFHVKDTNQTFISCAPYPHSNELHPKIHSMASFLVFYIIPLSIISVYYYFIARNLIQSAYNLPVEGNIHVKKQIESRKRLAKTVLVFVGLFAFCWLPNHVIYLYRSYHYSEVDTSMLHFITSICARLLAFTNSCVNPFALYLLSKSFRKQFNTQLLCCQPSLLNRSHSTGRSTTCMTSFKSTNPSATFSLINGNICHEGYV

NMB Receptor = target: T3, NMB Receptor (Rattus norvegicus, UniProt P24053); experiment: [3H]inositol phosphates (IP) in NMB-R transfected cells; type: cell-based; settings: for NMB-R Transfected Cells [^3H]IP Alone (10 µ M): analog 10 µM alone, no-additive control 13 ± 3; for NMB-R Transfected Cells [^3H]IP Plus NMB (3 nM): analog 10 µM plus NMB 3 nM, NMB without analog 186 ± 58; for effect on NMB-stimulated increase in [^3H]IP: NMB-R transfected cells, 3 nM NMB, peptide 10 µM
T3 construct: a full length NMB-preferring bombesin receptor clone generated from rat esophagus; expressed in transfected cells; host or cells: BALB 3T3 cells
T3 sequence (P24053 1-390): T1 sequence (P24053 1-390)
Protocol: As described previously [Wada, E., et al. Neuron 6:421 (1991)], BALB 3T3 cells expressing a stably transfected rat NMB receptor (NMB-R transfected cells) were obtained using calcium phosphate precipitation of a full length NMB-preferring bombesin receptor clone generated from rat esophagus and subcloned into a modified version of the pCD2 plasmid. Cells were passaged every 3-4 days at confluence, using 0.1% trypsin in 1 mM EDTA. Rat glioblastoma C-6 tumor cells were maintained similarly and were passaged weekly at confluence. Both cell lines were cultured at 37°C in a 5% CO2 atmosphere. Rat AR 42J pancreatic acinar cells were cultured in Dulbecco's modified Eagle's medium (DMEM) without antibiotics and supplemented with 10% (vol/vol) fetal calf serum. The incubation atmosphere consisted of 10% CO2-90% humidified air at 37°C.
as §1

rat NMB receptor = target: T4, rat NMB receptor (Rattus norvegicus, UniProt P24053); experiment: Binding of 125I-[D-Tyr0]NMB to NMB-R transfected BALB 3T3 cells; settings: for fold by which cyclo SS-octa was more potent than the analog: inhibition of ^125I-[Tyr^0]NMB binding to NMB-R transfected cells; for decrease in NMB receptor affinity compared with #1: structure-function comparison of Table 1 values
T4 construct: a full length NMB-preferring bombesin receptor clone generated from rat esophagus; expressed in transfected cells; host or cells: BALB 3T3 cells
T4 sequence (P24053 1-390): T1 sequence (P24053 1-390)
Protocol: Cells were passaged every 3-4 days at confluence, using 0.1% trypsin in 1 mM EDTA. Rat glioblastoma C-6 tumor cells were maintained similarly and were passaged weekly at confluence. Both cell lines were cultured at 37°C in a 5% CO2 atmosphere. Rat AR 42J pancreatic acinar cells were cultured in Dulbecco's modified Eagle's medium (DMEM) without antibiotics and supplemented with 10% (vol/vol) fetal calf serum. The incubation atmosphere consisted of 10% CO2-90% humidified air at 37°C.

[3] = target: T5, NMB receptors on C-6 glioblastoma cells (Rattus norvegicus, UniProt P24053); experiment: NMB-stimulated [3H]IP in C-6 glioblastoma cells; type: cell-based
T5 construct: endogenous in cells; host or cells: rat glioblastoma C-6 cells
T5 sequence (P24053 1-390): T1 sequence (P24053 1-390)
Protocol: as §1, with “for 60 min at 37°C with agonists at various concentrations or with 3 nM NMB (a half-maximal effective concentration) and possible antagonists at different concentrations.” left out

Compound	[^3H]IP, ET-1 (0.1 nM) Alone ([1]; C-6 glioblastoma cells, agonist without analog, basal 7.2±1.0) [dpm x 10^3]	fold higher affinity for NMB receptors than somatostatin receptors ([2]; rat olfactory bulb versus AR 42J membranes (Table 4)) [fold]	Rat Pancreatic Acini Amylase Release Alone (10µM) (GRP Receptor) [% total]	Rat Pancreatic Acini Amylase Release Plus Bn(0.3 nM) (GRP Receptor) [% total]	NMB-R Transfected Cells [^3H]IP Alone (10 µ M) (NMB Receptor) [dpm x 10^3]	NMB-R Transfected Cells [^3H]IP Plus NMB (3 nM) (NMB Receptor) [dpm x 10^3]	fold by which cyclo SS-octa was more potent than the analog (rat NMB receptor) [fold]	decrease in NMB receptor affinity compared with #1 (rat NMB receptor) [fold]	fold greater affinity for NMB receptors than mu opioid receptors ([2]; rat olfactory bulb versus rat forebrain membranes (Table 4)) [fold]	effect on NMB-stimulated increase in [^3H]IP (NMB Receptor)	[^3H]IP, Peptide Added ET-1 (0.1 nM) ([1]; C-6 glioblastoma cells, analog 10 µM plus ET-1 0.1 nM) [dpm x 10^3]	effect on endothelin-1-simulated increases in [^3H]IP in C-6 cells ([1]; Table 3)	[^3H]IP, Peptide Added NMB (10 nM) ([3]; C-6 glioblastoma cells, analog 10 µM plus NMB 10 nM) [dpm x 10^3]	[^3H]IP, Peptide Added None ([3]; C-6 glioblastoma cells, analog 10 µM, no agonist, control 7.2±1.0) [dpm x 10^3]	effect on NMB-stimulated increases in [^3H]IP in C-6 glioblastoma cells ([3]; Table 3)	fold greater affinity for the NMB than the GRP receptors (rat NMB receptor; NMB-R transfected cells versus GRP receptors on rat pancreatic acini) [fold]
endothelin 1 (CSCSSLMDKECVYFCHLDIIW; disulfide 1-15, 3-11; ends not checked; UniProt P05305 53-73, looked up) [ET-1, agonist from Peninsula Laboratories, reference compound]	11.0±2.1	–	–	–	–	–	–	–	–	–	–	–	–	–	–	–
CC(C)[C@@H]1NC(=O)[C@H](Cc2c[nH]cn2)NC(=O)[C@@H](Cc2c[nH]c3ccccc23)NC(=O)[C@H](Cc2ccc(O)cc2)NC(=O)[C@@H](NC(=O)[C@H](N)Cc2ccc3ccccc3c2)CSSC[C@@H](C(=O)N[C@@H](Cc2ccc3ccccc3c2)C(N)=O)NC1=O [Analog #14, [His^5]-cyclo SS-octa] (H-[d2Nal]CY[dW]HVC[2Nal]-NH2; disulfide 2-7; N-terminus assumed)	–	3	2 ± 1	13 ± 1	8 ± 1	97 ± 7	45	50	–	–	–	–	–	–	–	–
CC(C)[C@@H]1NC(=O)[C@H](CCCCN)NC(=O)[C@@H](Cc2c[nH]c3ccccc23)NC(=O)[C@H](Cc2ccc(O)cc2)NC(=O)[C@@H](NC(=O)[C@H](N)Cc2ccc3ccccc3c2)CSSC[C@H](C(=O)N[C@@H](Cc2ccc3ccccc3c2)C(N)=O)NC1=O [Analog #11, [D-Cys^7]-cyclo SS-octa] (H-[d2Nal]CY[dW]KV[dC][2Nal]-NH2; disulfide 2-7; N-terminus assumed)	–	–	2 ± 1	14 ± 1	10 ± 1	7 ± 4	6	5	> 50	completely inhibited	–	–	–	–	–	–
C[C@@H](O)[C@H](NC(=O)[C@@H]1CSSC[C@H](NC(=O)[C@H](N)Cc2ccc3ccccc3c2)C(=O)N[C@@H](Cc2ccc(O)cc2)C(=O)N[C@H](Cc2c[nH]c3ccccc23)C(=O)N[C@@H](CCCCN)C(=O)N[C@@H](Cc2ccc3ccccc3c2)C(=O)N1)C(N)=O [Analog #2, [Nal^6,Thr^8]-cyclo SS-octa]	–	–	5 ± 1	13 ± 1	11 ± 2	39 ± 7	4	4	–	–	11.2±1.9	had no effect	14.3 ± 4.2	7.3±1.2	inhibited	–
C[C@@H](O)[C@@H]1NC(=O)[C@H](CCCCN)NC(=O)[C@@H](Cc2c[nH]c3ccccc23)NC(=O)[C@H](Cc2ccc(O)cc2)NC(=O)[C@@H](NC(=O)[C@H](N)Cc2ccccc2)CSSC[C@@H](C(=O)N[C@@H](Cc2ccc3ccccc3c2)C(N)=O)NC1=O [Analog #7, [D-Phe^1, Thr^6]-cyclo-SS-octa] (H-[dF]CY[dW]KTC[2Nal]-NH2; disulfide 2-7; N-terminus assumed)	–	–	3 ± 1	16 ± 1	15 ± 1	99 ± 24	18	–	–	–	–	–	–	–	–	–
NCCCC[C@@H]1NC(=O)[C@@H](Cc2c[nH]c3ccccc23)NC(=O)[C@H](Cc2ccc(O)cc2)NC(=O)[C@@H](NC(=O)[C@H](N)Cc2ccc3ccccc3c2)CSSC[C@@H](C(=O)N[C@@H](Cc2ccc3ccccc3c2)C(N)=O)NC(=O)[C@H](Cc2ccccc2)NC1=O [Analog #13, [Phe^6]-cyclo SS-octa] (H-[d2Nal]CY[dW]KFC[2Nal]-NH2; disulfide 2-7; N-terminus assumed)	–	–	3 ± 1	14 ± 1	10 ± 1	9 ± 4	2	–	–	completely inhibited	–	–	–	–	–	> 100
C[C@@H](O)[C@H](NC(=O)[C@@H]1CSSC[C@H](NC(=O)[C@H](N)Cc2ccc3ccccc3c2)C(=O)N[C@@H](Cc2ccc(O)cc2)C(=O)N[C@H](Cc2c[nH]c3ccccc23)C(=O)N[C@@H](CCCCN)C(=O)N[C@@H]([C@@H](C)O)C(=O)N1)C(N)=O [Analog #6, [Thr^6,8]-cyclo-SS-octa]	–	–	3 ± 1	14 ± 2	11 ± 2	188 ± 30	69	–	–	had no effect	–	–	–	–	–	–
